Data set [1] deals with peptide 33 (bacteriophage P4 (designed variant)) (UniProt P05460). The data set can be described thus: EMSA. Particulars: EMSA/competition: 10 mM Tris-HCl pH 8.0, 250 mM NaCl, 37 C, 10 min, 10 nM labeled nucleic acid, fluorescence: 10 mM Tris-Cl pH 8, 500 mM NaCl, 20-37 C.
Another data set relates to bacterial cells. To be noted: cited from earlier work.
In a further data set the test system is E. coli. To be noted: also cause cell death; ref [29]; cited from earlier work. The source says: (§1) AMPs are prevalent in all forms of life. They are part of the natural defense mechanism of the organism. […] Another such small peptide that has the potential to be useful against drug-resistant bac ...
The next data set deals with bacteria. To be noted: acts by blocking the synthesis of macromolecules; ref [28]; cited from earlier work.
Description: as §1

Data set [2] deals with peptide 33 (bacteriophage P4 (designed variant)) (UniProt P05460). Description: competition. Particulars: EMSA/competition: 10 mM Tris-HCl pH 8.0, 250 mM NaCl, 37 C, 10 min, 10 nM labeled nucleic acid, fluorescence: 10 mM Tris-Cl pH 8, 500 mM NaCl, 20-37 C, scale: fold excess over 292 bp dsDNA for 50% release.
The test system of a further data set is dsDNA. Particulars: ref [30], [31], [32]; cited from earlier work.
Description: as §1

Like-named read-outs stand apart in the source and are kept apart here. Where no end group is shown, it is not given here.

160 bp dsDNA returned a Kd in data set [1] of 4000 nM.
Same read-out and setting: in the case of 283 nt gfc RNA it was 1000 nM.
The same measure, in the same setting: in the case of 292 bp dsDNA it was 2750 nM; in that of 499 bp dsDNA, 4700 nM.
Turning to `NCC[C@H](O)C(=O)N[C@@H]1C[C@H](N)[C@@H](O[C@H]2O[C@H](CN)[C@@H](O)[C@H](O)[C@H]2O)[C@H](O)[C@H]1O[C@H]1O[C@H](CO)[C@@H](O)[C@H](N)[C@H]1O` [amikacin], the elongated cell phenotype result in the data set on bacterial cells (ref [21]) is given as “elongated cells phenotypes”.
For `O=C(N[C@H](CO)[C@H](O)c1ccc([N+](=O)[O-])cc1)C(Cl)Cl` [chloramphenicol], in the data set with bacterial cells (ref [21], [22]), the elongated cell phenotype result was “elongated cells phenotypes”.
On to `O=C(O)c1cn(C2CC2)c2cc(N3CCNCC3)c(F)cc2c1=O` [ciprofloxacin], for which the elongated cell phenotype result with bacterial cells (ref [19]) is “elongated cells phenotypes”.
Take `NC[C@H]1O[C@H](O[C@H]2[C@H](O)[C@@H](O[C@H]3O[C@H](CO)[C@@H](O)[C@H](N)[C@H]3O)[C@H](N)C[C@@H]2N)[C@H](O)[C@@H](O)[C@@H]1O` [kanamycin]: in the data set on bacterial cells (ref [20]), the elongated cell phenotype result is on record as “elongated cells phenotypes”.
In data set [1], “ATCTTCTCTCATCCGCCAAAACAGCC [26-mer ssDNA (RS1816)]” showed a Kd of 2000 nM.
Take “HNP-1: human neutrophils-derived peptide defensin”: the “inhibition of DNA, RNA, and protein synthesis” value (shortened to “inhibition of DNA, RNA”) in the data set on E. coli is “inhibit the synthesis of DNA, RNA, and proteins”.
Turning to “HNP-2: human neutrophils-derived peptide defensin (CYCRIPACIAGERRYGTCIYQGRLWAFCC; ends and bridges not checked; cysteine pairing not given here; UniProt P59665 66-94, looked up)”, the “inhibition of DNA, RNA” value with E. coli was “inhibit the synthesis of DNA, RNA, and proteins”.
“HNP-3: human neutrophils-derived peptide defensin”: the “inhibition of DNA, RNA” value in the data set on E. coli was “inhibit the synthesis of DNA, RNA, and proteins”.
For Pleurocidin, the antibacterial activity result in the data set with bacteria is listed as “broad-spectrum antibacterial activity”.
In data set [1], “TGATCCTCCTCCTCCTGATCCTCCTCCTCCTGATCCTCCTCCTCCTGAGCGTTTCATCATTTCGAAGAAATCGTC [75-mer ssDNA (RS2230)]” showed a Kd of 740 nM. For the same compound, in data set [2], the binding signal came to 9.5.
In the case of gentamycin, the elongated cell phenotype result with bacterial cells (ref [23]) was “elongated cells phenotypes”.
Turning to “indolicidin: 13-mer peptide with tryptophan-rich sequences of the cathelicidin family of host defense peptides (ILPWKWPWWPWRR; ends and bridges not checked; UniProt P33046 131-143, looked up)”, in the data set with dsDNA, the “binding to dsDNA” value is on record as “binds to dsDNA”.
In data set [2], lambda tR1 RNA (284 nt) came in with a binding signal of 2.8.

The values are drawn from article PMC10692717, “Peptides designed from a bacteriophage capsid protein function as synthetic transcription repressors” (The Journal of Biological Chemistry, 2023).
